In brackets after ≈: the same amount, converted by molar mass. Read-outs that look alike come from different tables or passages of the source.
Legend:
E. coli ATCC25922 strain = assay: MIC 50, broth micro-dilution, wild-type Escherichia coli; type: cell-based; details: MH2, 18 h
Text: (§1) 3.1 Against E. coli Strains
(§2) Tested reference compounds. Amikacin sulfate (Cat. No. 01693, Chem-Impex), Gentamicin sulfate (Cat. No. G4918, Sigma Aldrich).
(§3) Microbial strains. E. coli ATCC 25922, E. coli ATCC 25922/pET-9b(+), E. coli ATCC 25922/pAT21-1, E. coli ATCC 25922/pBluescript::AAC(6′)-Ie/APH(2″)-Ia, E. coli ATCC 25922/pBlue_lpp_aacC3_rrnC, E. coli ATCC 25922/pSET152.
(§4) Culture media and equipment. BBL™ Mueller Hinton Broth 2 (Lot. BCBW1143, Cat. No. 70192, Sigma); Kanamycin A (Cat. No. A1493, AppliChem); 96-well deep well plate, 1 mL (Cat. No. 0030506.200, Eppendorf); Plate lids (Cat. No. 0030131.525, Eppendorf); 96-well plate, F-bottom (Cat. No. 781602, Brand; Incubator, Infors Multitron Pro); Laminar flow (Heraeus KS12); UV/VIS meter (Eppendorf BioPhotometer Plus); Platereader (Tecan Sunrise).
(§5) Compound preparation. Compounds were prepared in MH2 media at a concentration of 5 mM and stored at 4° C. For testing, solutions of 128 μM were prepared in MH2. Out of these working solutions, 400 μL was transferred to wells in the first column of 96-well deep well plates. Each compound was transferred in triplicate. Plates were previously filled with 200 μL of MH2 media in all wells except for the wells in the first column. After compound and antibiotic addition, the compounds were serial two-fold diluted by transferring 200 μL from the first to the second column, then from the second to the third column and so on. Finally, 200 μL was removed from the last column.
(§6) Inoculum preparation. Microorganisms used were all revived from 20% glycerol (40% v/v glycerol in water was diluted with MH2) storage at −80° C. by inoculating them in 5 mL MH2. inoculums of E. coli containing a plasmid were selected for by adding 50 μg/mL KanaA. The Inoculums were grown to an optical density (measured by UV/Vis spectroscopy) of 0.6-0.8 at 600 nm. Out of these suspensions, actual inoculums were prepared by diluting them to an optical density (OD) of 0.1 in MH2 media. From these inoculums, 200 μL was transferred to each well, resulting in a final compound concentration range of 64 μM-31.3 nM. All plates were incubated at 900 rpm and 70% rH for 18 h at 37° C.
MIC determination. After 18 h of growth, 200 μL was transferred to a 96-well F-bottom plate. The optical density was determined by a plate reader at 600 nm, with 10 s shaking before reading. Triplicate measurements were averaged, and a growth curve was plotted in Microsoft Excel. The first column in which the growth reached half the value of maximum growth was determined as the MIC50 value for that particular compound.
MIC50. The MIC50 of a compound was assigned at which the bacterial growth reached half the value of maximum growth.

E. coli (APH(3′)Ia) = assay: MIC 50, broth micro-dilution, E. coli expressing APH(3′)Ia; type: cell-based, Escherichia coli
Method: (§7) Plasmid transformation. Approximately 500 ng of the pET-9b(+) (Cat. No. 69432-3, Merck), pAT21-1 (provided by Prof. Dr. Patrice Courvalin, M.D., Pasteur Institute, France; prepared according to Trieu-Cuot et. al, Mol. Gen. Genet. 198(2), 348 (1985)), pBluescript::AAC(6′)-Ie/APH(2″)-Ia (provided by Prof. Dr. Sergei Vakulenko, M.D., University of Notre Dame, Ind., USA; prepared according to S. B. Vakulenko et. al., J. Biol. Chem. 287 (52), 43262 (2012)), pBlue_lpp_aacC3_rrnC and pSET152 (Cat. No. PVT3395, Life Science Market; prepared according to Bierman et al., Gene 116 (1), 43 (1992)) plasmids, encoding APH(3′)-Ia (SEQ ID NO:2), APH(3′)-IIIa (SEQ ID NO:3), AAC(6′)Ie-APH(2″)-Ia (SEQ ID NO:4), AAC(3)-III (SEQ ID NO:1), and AAC(3)-IV (SEQ ID NO:5) respectively, were individually incubated in a vial of competent cells for 15 min on ice. The cells were subsequently heated to 42° C. for 90 s, and cooled on ice for 1 min. After addition of 900 μL LB, the cells were incubated for 1 h at 37° C. and 200 rpm. Cells were plated on LB-agar supplemented with 50 μg/mL KanaA and incubated for 18 h at 37° C. The next day, a single colony was inoculated in 5 mL LB supplemented with 50 μg/mL and grown for 18 h at 37° C. and 200 rpm. A 200 μL sample of each culture was diluted with 200 μL of 40% v/v glycerol in water, and stored at −80° C. The plasmid was purified from the remaining culture using the Plasmid Miniprep kit. Plasmid DNA was investigated by Eurofins Genomics (Germany) to confirm the identity of the aminoglycoside resistance genes.
as §1, §2, §3, §4, §5, §6
(§8) MIC determination. After 18 h of growth, 200 μL was transferred to a 96-well F-bottom plate. The optical density was determined by a plate reader at 600 nm, with 10 s shaking before reading. Triplicate measurements were averaged, and a growth curve was plotted in Microsoft Excel. […]

E. coli (AAC(3)IV) = assay: MIC 50, broth micro-dilution, E. coli expressing AAC(3)IV; type: cell-based, Escherichia coli
Method: as §7, §1, §2, §3, §4, §5, §6, §8

[1] = tested on: E. coli (AAC(6′)Ie-APH(2″)Ia); assay: MIC 50, broth micro-dilution, E. coli expressing AAC(6′)Ie-APH(2″)Ia; type: cell-based, Escherichia coli
Method: as §7, §1, §2, §3, §4, §5, §6, §8

[2] = Escherichia coli, ATCC25922, 18 h
[3] = Escherichia coli, ATCC25922, ATCC25922 harboring plasmid encoding APH(3′)Ia
[4] = Escherichia coli, ATCC25922, ATCC25922 harboring plasmid encoding AAC(3)IV
[5] = Escherichia coli, ATCC25922, ATCC25922 harboring plasmid encoding AAC(6′)Ie-APH(2″)Ia
[6] = ATCC25922 harboring plasmid encoding APH(3′)Ia
[7] = ATCC25922 harboring plasmid encoding AAC(3)IV
[8] = ATCC25922 harboring plasmid encoding AAC(6′)Ie-APH(2″)Ia

| SMILES | MIC50 (E. coli ATCC25922 strain; [2]) | MIC50 (E. coli (APH(3′)Ia); [3]) | MIC50 (E. coli (AAC(3)IV); [4]) | MIC50 [1, 5] | MIC50 (E. coli ATCC25922 strain; Escherichia coli, read-out: MIC 50) | MIC50 (E. coli ATCC25922 strain) | MIC50 (E. coli (APH(3′)Ia); [6]) | MIC50 (E. coli (AAC(3)IV); [7]) | MIC50 [1, 8] |
| --- | --- | --- | --- | --- | --- | --- | --- | --- | --- |
| N=C(NC[C@H]1CCNC1)NC1[C@@H](O)C(OC2[C@@H](F)[C@H](O[C@H]3OC(CN)[C@@H](O)CC3N)C(N)C[C@H]2NC(=O)[C@@H](O)CCN)O[C@H](CO)[C@H]1O (stereo partly drawn) [ABX5042, Tobra-AHB-F-Gua (S) pyrrolidine-3-ylmethyl] | 0.25 µM (≈ 0.174 µg/mL) | 0.25 µM (≈ 0.174 µg/mL) | 1 µM (≈ 0.696 µg/mL) | 0.25 µM (≈ 0.174 µg/mL) |  |  |  |  |  |
| NCC[C@H](O)C(=O)N[C@@H]1C[C@H](N)[C@@H](O[C@H]2O[C@H](CN)[C@@H](O)[C@H](O)[C@H]2O)[C@H](O)[C@H]1O[C@H]1O[C@H](CO)[C@@H](O)[C@H](N)[C@H]1O [Amikacin, amikacin, reference compound] |  | 8 µM (≈ 4.68 µg/mL) | 8 µM (≈ 4.68 µg/mL) | 4 to 8 µM (≈ 2.34 to 4.68 µg/mL) | 2 µM (≈ 1.17 µg/mL) |  |  |  |  |
| NCC[C@H](O)C(=O)N[C@@H]1CC(N)[C@@H](O[C@H]2OC(CN)[C@@H](O)CC2N)[C@H](F)C1OC1O[C@H](CO)[C@@H](O)C(N)[C@H]1O (some centres unmarked) [ABX5024, Tobra-AHB-F] |  |  |  |  |  | 1 µM (≈ 0.571 µg/mL) | 2 to 4 µM | 2 µM (≈ 1.14 µg/mL) | 1 µM (≈ 0.571 µg/mL) |
| C[C@@H](N)CCNC(=N)NC1[C@@H](O)C(OC2[C@@H](F)[C@H](O[C@H]3OC(CN)[C@@H](O)CC3N)C(N)C[C@H]2NC(=O)[C@@H](O)CCN)O[C@H](CO)[C@H]1O (stereo partly drawn) [ABX5047, Tobra-AHB-F-Gua (R) 3-amino-butyl] | 0.25 µM (≈ 0.171 µg/mL) | 0.5 µM (≈ 0.342 µg/mL) | 1 to 2 µM (≈ 0.684 to 1.37 µg/mL) | 0.25 µM (≈ 0.171 µg/mL) |  |  |  |  |  |
| N=C(NC[C@@H]1CNCCO1)NC1[C@@H](O)C(OC2[C@@H](F)[C@H](O[C@H]3OC(CN)[C@@H](O)CC3N)C(N)C[C@H]2NC(=O)[C@@H](O)CCN)O[C@H](CO)[C@H]1O (stereo partly drawn) [ABX5040, Tobra-AHB-F-Gua (S) morpholin-2-yl methyl] | 0.5 µM (≈ 0.356 µg/mL) | 1 µM (≈ 0.712 µg/mL) | 1 µM (≈ 0.712 µg/mL) | 0.25 µM (≈ 0.178 µg/mL) |  |  |  |  |  |
| CC(C)(C)CCNC(=N)NC1[C@@H](O)C(OC2[C@@H](F)[C@H](O[C@H]3OC(CN)[C@@H](O)CC3N)C(N)C[C@H]2NC(=O)[C@@H](O)CCN)O[C@H](CO)[C@H]1O (some centres unmarked) [ABX5025, Tobra-AHB-F-Gua 2-tBu-ethyl] | 0.25 to 0.5 µM (≈ 0.174 to 0.348 µg/mL) | 1 µM (≈ 0.697 µg/mL) | 2 µM (≈ 1.39 µg/mL) | 0.5 µM (≈ 0.348 µg/mL) |  |  |  |  |  |
| NCC[C@H](O)C(=O)N[C@@H]1C[C@H](N)[C@@H](O[C@H]2O[C@H](CN)[C@@H](O)[C@@H](O)[C@H]2O)[C@H](O)[C@H]1O[C@H]1O[C@H](CO)[C@@H](O)[C@H](N)[C@H]1O [ABX3002, 3′Epi-KanaA-AHB] |  |  |  |  |  | 16 to 32 µM | 32 µM (≈ 18.7 µg/mL) | 32 µM (≈ 18.7 µg/mL) | 16 µM (≈ 9.37 µg/mL) |
| N=C(NCCN)NC1C(O)[C@@H](CO)OC(OC2C(F)[C@H](O[C@H]3OC(CN)[C@@H](O)CC3N)C(N)C[C@H]2NC(=O)[C@@H](O)CCN)[C@@H]1O (some centres unmarked) [ABX5020, Tobra-AHB-F-Gua-2-amino-ethyl] | 0.5 µM (≈ 0.328 µg/mL) | 1 to 2 µM (≈ 0.656 to 1.31 µg/mL) | 1 µM (≈ 0.656 µg/mL) | 0.5 µM (≈ 0.328 µg/mL) |  |  |  |  |  |
| N=C(N)NC1[C@@H](O)C(OC2[C@@H](F)[C@H](O[C@H]3OC(CN)[C@@H](O)[C@H](O)C3N)C(N)C[C@H]2NC(=O)[C@@H](O)CCN)O[C@H](CO)[C@H]1O (some centres unmarked) [ABX4006, KanaB-AHB-F-Gua] |  |  | 2 µM (≈ 1.26 µg/mL) | 1 µM (≈ 0.629 µg/mL) |  |  | 1 to 2 µM |  |  |
